From patent publication US9103790B2, “Linker for unimolecular FRET biosensor based on principle of fluorescence resonance energy transfer” (KYOTO UNIVERSITY, priority 2010, dated 2015)

Experiments:
[1] = tested on: EGF dependent-activation of ERK; experiment: Drug sensitivity test: FRET measurement of ERK activity in cell line stably expressing Eevee-ERK (3560 NES); type: cell-based, human; conditions: HeLa cells stably expressing Eevee-ERK (3560 NES); serial-diluted inhibitors; 25 ng/mL EGF; after 30 min; average of 30 or more cells
Method: FIG. 18A illustrates results when HeLa cells stably expressing Eevee-ERK were seeded onto a 96-well plate, were added thereto serial-diluted inhibitors and stimulated with 25 ng/mL EGF. ERK activities were automatically measured for 30 or more cells, averaged, and plotted. FIG. 18A illustrates results of DMSO controls.
A mammalian cell expression plasmid containing the gene of Eevee-ERK (3560 NES) described in Example 3 was inserted into a plasmid having a transposon recognition sequence. This plasmid and a transposon expression vector was co-transfected as previously reported and screened for biosensor-expressing cell lines by blasticidin [Yusa, K., R. Rad, J. Takeda, and A. Bradley. 2009. Generation of transgene-free induced pluripotent mouse stem cells by the piggyBac transposon. Nat. Methods 6 (5)363-369].
Cultured cell lines were seeded onto a 96-well culture plate. Serial-diluted inhibitors were added thereto. The cell lines were stimulated with 25 ng/mL EGF. After 30 min, ERK activities were measured as described in Example 3 (see FIGS. 18A to 18H). The average ERK activities of 30 or more cells were plotted. The following inhibitors were used: EGF receptor inhibitors (AG1478), MEK inhibitors (PD15035, PD184351), BRAF inhibitors (PLX4720), phosphatidylinositol 3-phosphate kinase inhibitors (LY294002), RSK inhibitors (BI-D1870) and JNK inhibitors (JNK inhibitor VIII).

[2] = tested on: PKA; experiment: Drug sensitivity test with transgenic mouse expressing Eevee-PKA (3536 NES), two-photon FRET imaging of small intestine; type: in vivo; conditions: intravenous injection; intermuscular nerve cell, intestinal smooth muscle, vascular smooth muscle
Text: FIG. 19 illustrates results when the transgenic mouse expressing Eevee-PKA (3536 NES) was intravenously injected with theophylline, which is a phosphodiesterase inhibitor, and actosin, which is a cyclic adenosine triphosphate analog, and measured for PKA activities.
The transgenic mouse expressing Eevee-PKA (3536 NES) generated in Example 10 was anesthetized with isoflurane. A small intestine of the mouse was time-lapse imaged by an inverted two-photon microscope IX81/FV1000 (product of Olympus Corporation). Cells were excited at 840 nm with a titanium-sapphire laser system (Mai Tai Deep See HP; product of Spectra-Physics, Inc.). CFP fluorescence and YFP fluorescence were acquired using BA 460-500 fluorescence filter (product of Olympus Corporation) and BA 520-560 fluorescence filter (product of Olympus Corporation), respectively. FRET images were obtained in the same manner as in Example 3.
The transgenic mouse was intravenously injected with theophylline, which is a phosphodiesterase inhibitor, and actosin, which is a cyclic adenosine triphosphate analog, and measured for PKA activities.

SMILES: COc1cc2ncnc(Nc3cccc(Cl)c3)c2cc1OC [AG1478]
- inhibition of EGF dependent-activation of ERK [1]: effectively inhibited

SMILES: COc1cc2ncnc(Nc3cccc(Br)c3)c2cc1OC [PD153035]
- inhibition of EGF dependent-activation of ERK [1]: effectively inhibited

SMILES: O=C(NOCC1CC1)c1ccc(F)c(F)c1Nc1ccc(I)cc1Cl [PD184352]
- inhibition of EGF dependent-activation of ERK [1]: effectively inhibited

SMILES: CCCC(=O)Nc1ncnc2c1ncn2[C@@H]1O[C@@H]2COP(=O)([O-])O[C@H]2[C@H]1OC(=O)CCC.[Na+] [actosin]
- PKA activities (FRET) [2]: Changes in PKA activities

SMILES: Cn1c(=O)c2[nH]cnc2n(C)c1=O [theophylline]
- PKA activities (FRET) [2]: Changes in PKA activities
